What was measured:
Assay in all cases: relative viability (nuclei count vs DMSO), 5 days (fraction); higher = more cells survive
Imatinib + Alpelisib = compound: Cc1ccc(NC(=O)c2ccc(CN3CCN(C)CC3)cc2)cc1Nc1nccc(-c2cccnc2)n1 [Imatinib] + Cc1nc(NC(=O)N2CCC[C@H]2C(N)=O)sc1-c1ccnc(C(C)(C)C(F)(F)F)c1 [Alpelisib] (partner 2 µM)
Procedure, shortened: (§1)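 The day after seeding in 1536-well plates, lung cancer cell lines were treated by pin tool with a single drug, or with a fixed anchor-drug dose together with five library-drug doses (not always all listed) in √10 steps. After 5 days, a combined fix-and-stain solution (final 0.05% Triton X-100, 1% formaldehyde, 1 ug/ml Hoechst) was added. Nuclei counted on 4× images gave relative viability as treated counts over vehicle counts, reported as the median of duplicate plates.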

Imatinib + Pictilisib = compound: Cc1ccc(NC(=O)c2ccc(CN3CCN(C)CC3)cc2)cc1Nc1nccc(-c2cccnc2)n1 [Imatinib] + CS(=O)(=O)N1CCN(Cc2cc3nc(-c4cccc5[nH]ncc45)nc(N4CCOCC4)c3s2)CC1 [Pictilisib] (partner 1 µM)
Procedure, shortened: as §1

Imatinib + OSI-027 = compound: Cc1ccc(NC(=O)c2ccc(CN3CCN(C)CC3)cc2)cc1Nc1nccc(-c2cccnc2)n1 [Imatinib] + COc1cccc2cc(-c3nc([C@H]4CC[C@H](C(=O)O)CC4)n4ncnc(N)c34)[nH]c12 [OSI-027] (partner 0.5 µM)
Procedure, shortened: as §1

Imatinib + Crizotinib = compound: Cc1ccc(NC(=O)c2ccc(CN3CCN(C)CC3)cc2)cc1Nc1nccc(-c2cccnc2)n1 [Imatinib] + C[C@@H](Oc1cc(-c2cnn(C3CCNCC3)c2)cnc1N)c1c(Cl)ccc(F)c1Cl [Crizotinib] (partner 1 µM)
Procedure, shortened: as §1

Cell Line | relative viability (Imatinib + Alpelisib; first compound 0.02 µM) | relative viability (Imatinib + Alpelisib; first compound 0.06325 µM) | relative viability (Imatinib + Alpelisib; first compound 0.2 µM) | relative viability (Imatinib + Alpelisib; first compound 0.6325 µM) | relative viability (Imatinib + Alpelisib; first compound 2 µM) | relative viability (Imatinib + Pictilisib; first compound 0.02 µM) | relative viability (Imatinib + Pictilisib; first compound 0.06325 µM) | relative viability (Imatinib + Pictilisib; first compound 0.2 µM) | relative viability (Imatinib + Pictilisib; first compound 0.6325 µM) | relative viability (Imatinib + Pictilisib; first compound 2 µM) | relative viability (Imatinib + OSI-027; first compound 0.02 µM) | relative viability (Imatinib + OSI-027; first compound 0.06325 µM) | relative viability (Imatinib + OSI-027; first compound 0.2 µM) | relative viability (Imatinib + OSI-027; first compound 0.6325 µM) | relative viability (Imatinib + OSI-027; first compound 2 µM) | relative viability (Imatinib + Crizotinib; first compound 0.02 µM) | relative viability (Imatinib + Crizotinib; first compound 0.06325 µM) | relative viability (Imatinib + Crizotinib; first compound 0.2 µM) | relative viability (Imatinib + Crizotinib; first compound 0.6325 µM) | relative viability (Imatinib + Crizotinib; first compound 2 µM)
EMC-BAC-2 | 0.823 | 0.81 | 0.877 | 0.788 | 0.844 | 0.513 | 0.505 | 0.614 | 0.536 | 0.582 | 0.378 | 0.338 | 0.39 | 0.399 | 0.364 | 0.825 | 0.761 | 0.872 | 0.685 | 0.707
EPLC-272H | 1.04 | – | 0.987 | 1.03 | 0.843 | 0.301 | – | 0.402 | 0.344 | 0.286 | 0.265 | – | 0.273 | 0.311 | 0.249 | 0.973 | – | 1.16 | – | 1.03
H3255 | 0.815 | – | 0.747 | 0.645 | 0.618 | 0.493 | 0.488 | 0.507 | 0.447 | 0.426 | 0.568 | 0.662 | 0.539 | 0.612 | 0.548 | 0.636 | – | 0.816 | 0.889 | 0.793
HARA | 1 | 0.501 | 0.822 | 0.697 | 0.804 | 0.42 | 0.406 | 0.389 | 0.363 | 0.339 | 0.47 | – | 0.518 | 0.583 | 0.404 | 1.15 | 1.09 | 1.22 | 1.05 | 1.08
HCC-15 | – | 0.853 | 0.883 | 0.814 | 0.885 | 0.719 | 0.324 | 0.777 | 0.809 | 0.698 | 0.716 | – | 0.623 | 0.683 | 0.666 | 0.683 | 0.779 | 0.9 | 0.792 | 0.817
HCC-44 | 0.895 | 0.819 | 0.941 | 0.71 | 0.791 | 0.604 | 0.653 | 0.974 | 0.548 | 0.529 | 0.484 | 0.422 | 0.437 | 0.466 | 0.461 | 0.921 | 0.841 | 0.911 | 0.841 | 0.712
HCC-78 | 0.319 | 0.381 | 0.367 | 0.347 | 0.348 | 0.208 | 0.177 | 0.198 | 0.207 | 0.2 | 0.332 | 0.387 | 0.389 | 0.366 | 0.314 | 0.334 | 0.344 | 0.36 | 0.314 | 0.322
HCC-366 | 0.543 | – | 0.431 | 0.362 | 0.35 | 0.131 | 0.119 | 0.19 | 0.144 | 0.223 | 1.01 | – | 1.05 | 0.812 | 0.748 | 1.19 | – | 0.777 | 0.334 | 0.399
HCC-827 | 0.987 | 0.861 | 1.05 | – | 1.01 | 0.817 | 0.942 | 1.1 | 0.926 | 0.952 | – | 0.732 | 0.937 | 0.705 | 0.824 | 0.954 | 0.889 | 0.91 | – | 0.973
HOP-62 | 1.13 | – | 0.758 | – | 0.934 | 0.775 | – | 0.822 | 0.569 | 0.958 | 0.999 | – | 0.993 | 0.724 | 0.781 | 0.87 | – | 0.984 | 1.06 | 1
LC-2-ad | 0.965 | 0.967 | 0.913 | 0.819 | 0.817 | 0.379 | 0.492 | 0.573 | 0.429 | 0.43 | 0.788 | 0.623 | 0.822 | 0.833 | 0.929 | 0.458 | – | 0.502 | 0.434 | 0.384
LCLC-97TM1 | – | – | 0.236 | 0.231 | 0.266 | – | – | 0.18 | 0.225 | 0.164 | 0.562 | – | 0.577 | 0.542 | 0.444 | – | – | 0.358 | 0.34 | 0.407
LCLC-103H | 0.909 | – | 0.9 | 0.851 | – | 0.67 | – | 0.692 | 0.578 | – | 0.453 | 0.375 | 0.548 | 0.415 | 0.433 | 1.16 | – | – | 0.937 | –
LK-2 | 1.33 | – | 1.23 | 1.18 | 1.19 | 0.639 | – | 0.581 | 0.488 | 0.572 | 0.178 | 0.207 | 0.151 | 0.217 | 0.212 | 0.213 | – | 0.224 | 0.236 | 0.179
LOU-NH91 | 0.77 | 0.722 | 0.729 | 0.68 | 0.674 | 0.51 | 0.546 | 0.49 | 0.537 | 0.498 | 0.759 | 0.708 | 0.745 | 0.699 | 0.658 | 0.747 | 0.778 | 0.767 | 0.677 | 0.769
LU99A | 0.575 | 0.604 | 0.599 | 0.523 | 0.514 | 0.353 | 0.333 | 0.3 | 0.354 | 0.335 | 0.315 | 0.285 | 0.301 | 0.323 | 0.28 | 0.53 | 0.735 | 0.534 | 0.536 | 0.532
LXF-289 | 1.16 | 1.06 | 1.15 | 0.967 | 1.02 | 0.929 | 0.711 | 0.934 | 0.747 | 0.804 | 0.791 | 0.556 | 0.814 | 0.754 | 0.724 | 0.881 | 0.826 | 0.876 | 0.814 | 0.777
NCI-H23 | 0.751 | – | 0.866 | 0.731 | 0.58 | 0.582 | 0.547 | 0.541 | 0.446 | 0.494 | 0.62 | 0.606 | 0.551 | 0.598 | 0.496 | 0.573 | 0.712 | 0.584 | 0.374 | 0.398
